Test results taken from patent US8283465B2, “Triazolopyridine compound, and action thereof as prolyl hydroxylase inhibitor or erythropoietin production-inducing agent” (Japan Tobacco Inc., priority 2009, dated 2012).
Counter-ions that a name gives are not always drawn. Like-named read-outs stand apart in the source and are kept apart here.

Legend:
[1] = target: T1, human PHD2 (Homo sapiens, UniProt Q9GZT9); test: Measurement of human PHD inhibitory activity (TR-FRET, hydroxylation of HIF-1α partial peptide); format: biochemical; conditions: human PHD2 enzyme 1 nM, 25° C. 30 min, values consisting solely of numbers; read-out: IC50 (μM) in vitro, human PHD inhibitory activity
T1 construct: made in house; host or cells: Sf9 insect cells (baculovirus, pVL1393 vector)
Description: Human PHD2 was expressed in insect cell (Sf9 cell). […] The vector and baculovirus were cotransfected into Sf9, and human PHD2 expression baculovirus was isolated in Sf9. By using the virus, human PHD2-expressed cell was prepared. […] The cell lysate was flowed into a column filled with ANTI-FLAG M2 Affinity Gel Freezer Safe (SIGMA), washed, and the N-terminal FLAG-tag-added human PHD2 was eluted and collected.
VBC complex (VHL/Elongin B/Elongin C) was expressed in Escherichia coli (BL21(DE3)). […] After these expression vectors were transfected into Escherichia coli (BL21(DE3)), Escherichia coli was cultured at 37° C. in the medium containing IPTG. The collected Escherichia coli was disrupted by sonication and flowed into a column filled with Ni-NTA superflow (QIAGEN), washed, and the product was eluted and collected. The eluate was flowed into a column filled with Glutathione Sepharose 4B, washed, and the product was eluted and collected. […]
As for human PHD2 enzyme activity, hydroxylation of proline residue contained in the 19 residues of the partial peptide based on the sequence of HIF-1α as a substrate was measured by TR-FRET (Time-Resolved Fluorescence Resonance Energy Transfer) method.
A test compound and a substrate solution were added to a 96-well plate. The reaction was started by addition of a human PHD2 enzyme solution (final concentration 1 nM) to the reaction system. After incubation at 25° C. for 30 min, a stop solution containing EDTA was added, and a VBC complex solution containing europium (Eu) and Xlent was added, and the amount of hydroxylated proline residue was quantified by time-resolved fluorescence spectroscopy. The time-resolved fluorescence in each well was measured, and the human PHD inhibitory activity (%) of the test compound was calculated based on the values of enzyme non-addition well and test compound non-addition well.

[2] = test system: human EPO production, Hep3B cells; test: Human EPO production activity in Hep3B cells (EPO-ELISA of culture supernatant); format: cell-based; conditions: for EC50: 24 hr incubation, values consisting solely of numbers, read-out: EC50 (μM) in vitro, human EPO production activity; for production activity (%) at 30 μM in vitro, human EPO: 24 hr, values containing %, relative to maximum production
Description: The activity of the test compound on human EPO production was measured using Hep3B (AMC) established from human liver-derived cell line.
Hep3B cells were cultured in Eagle-MEM medium containing 10% fetal bovine serum, and the test compound was diluted with dimethyl sulfoxide (DMSO).
Hep3B cells were cultured in a 96-well plate, and a test compound was added at each concentration 24 hr later. After incubation at 37° C. for 24 hr, the culture supernatant was collected. The concentration of human EPO produced in the culture supernatant was measured using a human EPO-ELISA kit (manufactured by StemCell Technologies, 01630) according to the manufacturer's explanation, and the human EPO production activity (%) of the test compound was calculated based on the maximum value of production under the above conditions and the value without addition of the test compound. […] In these Tables, the values consisting solely of numbers show EC50 (μM) and those containing % show human EPO production activity (%) at […].

T1 sequence (Q9GZT9 whole entry): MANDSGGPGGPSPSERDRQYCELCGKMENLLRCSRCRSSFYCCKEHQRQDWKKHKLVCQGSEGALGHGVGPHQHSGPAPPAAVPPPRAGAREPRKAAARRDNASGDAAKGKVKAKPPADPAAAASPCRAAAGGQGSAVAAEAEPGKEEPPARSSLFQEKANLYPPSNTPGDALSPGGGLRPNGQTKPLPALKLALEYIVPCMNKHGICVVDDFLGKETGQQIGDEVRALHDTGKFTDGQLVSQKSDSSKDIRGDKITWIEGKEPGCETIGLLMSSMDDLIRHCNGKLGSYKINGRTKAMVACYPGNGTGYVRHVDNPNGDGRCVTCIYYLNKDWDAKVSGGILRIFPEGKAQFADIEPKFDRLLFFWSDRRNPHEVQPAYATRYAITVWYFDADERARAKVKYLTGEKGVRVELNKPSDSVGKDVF

Compound: O=C(O)CNC(=O)c1c(O)cc(-c2cc(C(F)(F)F)ccc2F)n2ncnc12 [Example 34, {[5-(2-fluoro-5-trifluoromethyl-phenyl)-7-hydroxy[1,2,4]triazolo[1,5-a]pyridine-8-carbonyl]amino}acetic acid hydrochloride]
- IC50 [1]: 0.43 µM
- EC50 ([2]; Homo sapiens): 15 µM

Compound: O=C(O)CNC(=O)c1c(O)cc(CCc2ccc(C3CC3)cc2)n2ncnc12 [Example 38, ({5-[2-(4-cyclopropyl-phenyl)ethyl]-7-hydroxy[1,2,4]trizazolo[1,5-a]pyridine-8-carbonyl}amino)acetic acid hydrochloride]
- IC50 [1]: 0.59 µM
- EC50 ([2]; Homo sapiens): 8.7 µM

Compound: O=C(O)CNC(=O)c1c(O)c(CCc2ccccc2)cn2ncnc12 [Example 5, [(7-hydroxy-6-phenethyl[1,2,4]triazolo[1,5-a]pyridine-8-carbonyl)amino]acetic acid hydrochloride]
- IC50 [1]: 1.17 µM
- EC50 ([2]; Homo sapiens): 11.5 µM

Compound: O=C(O)CNC(=O)c1c(O)cc(-c2cc(Cl)cc(C(F)(F)F)c2)n2ncnc12 [Example 36, {[5-(3-chloro-5-trifluoromethyl-phenyl)-7-hydroxy[1,2,4]triazolo[1,5-a]pyridine-8-carbonyl]amino}acetic acid hydrochloride]
- IC50 [1]: 0.72 µM
- EC50 ([2]; Homo sapiens): 10.5 µM

Compound: O=C(O)CNC(=O)c1c(O)cc(CCC2CCCCC2)c2ncnn12 [Example 98, {[8-(2-cyclohexylethyl)-6-hydroxy[1,2,4]triazolo[1,5-a]pyridine-5-carbonyl]amino} acetic acid hydrochloride]
- IC50 [1]: 1.13 µM
- EC50 ([2]; Homo sapiens): 25.6 µM

Compound: O=C(O)CNC(=O)c1c(O)cc(-c2cccc(Cl)c2)c2ncnn12 [Example 84, {[8-(3-chlorophenyl)-6-hydroxy[1,2,4]triazolo[1,5-a]pyridine-5-carbonyl]amino} acetic acid]
- EC50 ([2]; Homo sapiens, Hep3B, 24 h): 11 µM

Compound: Cc1ccc(-c2cc(O)c(C(=O)NCC(=O)O)c3ncnn23)s1 [Example 72, {[7-hydroxy-5-(5-methylthiophen-2-yl) [1,2,4]triazolo[1,5-a]pyridine-8-carbonyl]amino} acetic acid hydrochloride]
- IC50 [1]: 0.4 µM
- EC50 ([2]; Homo sapiens): 4 µM

Compound: Cc1nc2c(C(=O)NCC(=O)O)c(O)cc(CCc3ccccc3)n2n1 [Example 7, [(7-hydroxy-2-methyl-5-phenethyl[1,2,4]triazolo[1,5-a]pyridine-8-carbonyl)amino]acetic acid hydrochloride]
- EC50 ([2]; Homo sapiens, Hep3B, 24 h): 18.4 µM

Compound: O=C(O)CNC(=O)c1c(O)cc(CCc2ccccc2C(F)(F)F)c2ncnn12 [Example 100, ({6-hydroxy-8-[2-(2-trifluoromethyl phenyl)ethyl][1,2,4]triazolo[1,5-a]pyridine-5-carbonyl}amino) acetic acid hydrochloride]
- IC50 [1]: 0.82 µM
- EC50 ([2]; Homo sapiens): 18 µM

Compound: CCCc1cc(O)c(C(=O)NCC(=O)O)c2ncnn12 [Example 65, [(7-hydroxy-5-propyl[1,2,4]triazolo[1,5-a]pyridine-8-carbonyl)amino] acetic acid hydrochloride]
- production activity (%) at 30 μM in vitro, human EPO [2]: 49%

Compound: O=C(O)CNC(=O)c1c(O)cc(-c2ccc(Cl)cc2)n2ncnc12 [Example 50, {[5-(4-chlorophenyl)-7-hydroxy[1,2,4]triazolo[1,5-a]pyridine-8-carbonyl]amino}acetic acid hydrochloride]
- IC50 [1]: 0.18 µM
- EC50 ([2]; Homo sapiens): 5.6 µM

Compound: O=C(O)CNC(=O)c1c(O)cc(-c2ccc(F)c(C(F)(F)F)c2)n2ncnc12 [Example 121, {[5-(4-fluoro-3-trifluoromethyl phenyl)-7-hydroxy[1,2,4]triazolo[1,5-a]pyridine-8-carbonyl]amino} acetic acid]
- IC50 [1]: 0.33 µM

Compound: CCCCCc1cc(O)c(C(=O)NCC(=O)O)c2ncnn12 [Example 74, [(7-hydroxy-5-pentyl[1,2,4]triazolo[1,5-a]pyridine-8-carbonyl)amino] acetic acid hydrochloride]
- EC50 ([2]; Homo sapiens, Hep3B, 24 h): 8.3 µM

Compound: O=C(O)CNC(=O)c1c(O)ccn2cnnc12 [Example 10, [(7-hydroxy[1,2,4]triazolo[4,3-a]pyridine-8-carbonyl)amino]acetic acid hydrochloride]
- production activity (%) at 30 μM in vitro, human EPO [2]: 0%

Compound: O=C(O)CNC(=O)c1c(O)cc(-c2ccccc2)n2ncnc12 [Example 22, [(7-hydroxy-5-phenyl[1,2,4]triazolo[1,5-a]pyridine-8-carbonyl)amino]acetic acid hydrochloride]
- EC50 ([2]; Homo sapiens, Hep3B, 24 h): 13.7 µM

Compound: CCCCCc1cn2ncnc2c(C(=O)NCC(=O)O)c1O [Example 71, [(7-hydroxy-6-pentyl[1,2,4]triazolo[1,5-a]pyridine-8-carbonyl)amino] acetic acid hydrochloride]
- EC50 ([2]; Homo sapiens, Hep3B, 24 h): 15.8 µM

Compound: O=C(O)CNC(=O)c1c(O)cc(-c2cc(F)cc(C(F)(F)F)c2)n2ncnc12 [Example 118, {[5-(3-fluoro-5-trifluoromethyl phenyl)-7-hydroxy[1,2,4]triazolo[1,5-a]pyridine-8-carbonyl]amino} acetic acid]
- IC50 [1]: 0.64 µM

Compound: O=C(O)CNC(=O)c1c(O)cc(CCc2ccccc2)c2ncnn12 [Example 87, [(6-hydroxy-8 phenethyl[1,2,4]triazolo[1,5-a]pyridine-5-carbonyl)amino] acetic acid hydrochloride]
- EC50 ([2]; Homo sapiens, Hep3B, 24 h): 18.5 µM

Compound: O=C(O)CNC(=O)c1c(O)cc(CCc2ccc(F)cc2)n2ncnc12 [Example 17, ({5-[2-(4-fluorophenyl)ethyl]-7-hydroxy[1,2,4]triazolo[1,5-a]pyridine-8-carbonyl}amino)acetic acid hydrochloride]
- EC50 ([2]; Homo sapiens, Hep3B, 24 h): 8.8 µM

Compound: O=C(O)CNC(=O)c1c(O)cc(-c2ccccc2)c2ncnn12 [Example 83, [(6-hydroxy-8-phenyl[1,2,4]triazolo[1,5-a]pyridine-5-carbonyl)amino] acetic acid hydrochloride]
- EC50 ([2]; Homo sapiens, Hep3B, 24 h): 20.7 µM

Compound: O=C(O)CNC(=O)c1c(O)cc(-c2cc(F)cc(C3CC3)c2)n2ncnc12 [Example 122, {[5-(3-cyclopropyl-5-fluorophenyl)-7-hydroxy[1,2,4]triazolo[1,5-a]pyridine-8-carbonyl]amino} acetic acid]
- IC50 [1]: 0.96 µM

Compound: CCCCc1cc(O)c(C(=O)NCC(=O)O)c2ncnn12 [Example 117, [(5-butyl-7-hydroxy[1,2,4]triazolo[1,5-a]pyridine-8-carbonyl)amino] acetic acid]
- EC50 [2]: 7.7 µM

Compound: CCCCc1cc(O)c(C(=O)NCC(=O)O)c2ncnn12 [Example 3, [(5-butyl-7-hydroxy[1,2,4]triazolo[1,5-a]pyridine-8-carbonyl)amino]acetic acid hydrochloride]
- EC50 ([2]; Homo sapiens, Hep3B, 24 h): 12.4 µM

Compound: O=C(O)CNC(=O)c1c(O)cc(-c2cccc(Cl)c2)n2ncnc12 [Example 44, {[5-(3-chlorophenyl)-7-hydroxy[1,2,4]triazolo[1,5-a]pyridine-8-carbonyl]amino}acetic acid]
- EC50 ([2]; Homo sapiens, Hep3B, 24 h): 10.4 µM

Compound: O=C(O)CNC(=O)c1c(O)cc(C2CCCCC2)c2ncnn12 [Example 92, [(8-cyclohexyl-6-hydroxy[1,2,4]triazolo[1,5-a]pyridine-8-carbonyl]amino] acetic acid hydrochloride]
- EC50 ([2]; Homo sapiens, Hep3B, 24 h): 18.5 µM

Compound: O=C(O)CNC(=O)c1c(O)cc(C2CCCCC2)n2ncnc12 [Example 27, [(5-cyclohexyl-7-hydroxy[1,2,4]triazolo[1,5-a]pyridine-8-carbonyl)amino]acetic acid hydrochloride]
- EC50 ([2]; Homo sapiens, Hep3B, 24 h): 7.7 µM

Compound: O=C(O)CNC(=O)c1c(O)ccn2ncnc12 [Example 12, [(7-hydroxy[1,2,4]triazolo[1,5-a]pyridine-8-carbonyl)amino]acetic acid hydrochloride]
- production activity (%) at 30 μM in vitro, human EPO [2]: 5%

Compound: CCc1c(O)c(C(=O)NCC(=O)O)c2ncnn2c1CC.Cl [Example 4, [(5,6-diethyl-7-hydroxy[1,2,4]triazolo[1,5-a]pyridine-8-carbonyl)amino]acetic acid hydrochloride]
- production activity (%) at 30 μM in vitro, human EPO [2]: 38%

Compound: Cl.O=C(O)CNC(=O)c1c(O)ccc2ncnn12 [Example 107, [(6-hydroxy[1,2,4]triazolo[1,5-a]pyridine-5-carbonyl]amino} acetic acid hydrochloride]
- production activity (%) at 30 μM in vitro, human EPO [2]: 4%
